Assay results from patent publication US11497212B2, “Substituted thiophenyl uracils, salts thereof and the use thereof as herbicidal agents” (Syngenta Crop Protection AG, priority 2017, dated 2022).

What was measured:
Assay type in all cases: in vivo
[1] = tested on: Echinochloa crus-galli; assay: Herbicidal action post-emergence (greenhouse pot trial); conditions: application rate 80 g/ha, scored visually after about 3 weeks vs untreated controls
Method in brief: (§1)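 Percent herbicidal efficacy, assessed by eye about 3 weeks after spraying, compares treated with untreated plants. Treatment is a post-emergence spray at the one-leaf stage, using a WP or EC preparation plus 0.5% additive in 600 L/ha of water, at 80 g/ha or lower.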

[2] = tested on: Stellaria media; assay: as above; conditions: application rate 80 g/ha, scored visually after about 3 weeks vs untreated controls
Method in brief: as §1

[3] = tested on: Veronica persica; assay: as above; conditions: application rate 80 g/ha
Method in brief: as §1

[4] = tested on: Pharbitis purpurea; assay: as above; conditions: application rate 80 g/ha
Method in brief: as §1

[5] = tested on: Amaranthus retroflexus; assay: as above; conditions: application rate 80 g/ha, scored visually after about 3 weeks vs untreated controls
Method in brief: as §1

[6] = tested on: Abutilon theophrasti; assay: as above; conditions: application rate 80 g/ha, scored visually after about 3 weeks vs untreated controls
Method in brief: as §1

[7] = tested on: Matricaria inodora; assay: as above; conditions: application rate 80 g/ha, scored visually after about 3 weeks vs untreated controls
Method in brief: as §1

[8] = tested on: Polygonum convolvulus; assay: as above; conditions: application rate 80 g/ha, scored visually after about 3 weeks vs untreated controls
Method in brief: as §1

[9] = tested on: Hordeum murinum; assay: as above; conditions: application rate 80 g/ha, scored visually after about 3 weeks vs untreated controls
Method in brief: as §1

[10] = tested on: Viola tricolor; assay: as above; conditions: application rate 80 g/ha
Method in brief: as §1

[11] = tested on: Setaria viridis; assay: as above; conditions: application rate 80 g/ha, scored visually after about 3 weeks vs untreated controls
Method in brief: as §1

[12] = tested on: Glycine max; assay: Crop compatibility pre-emergence (greenhouse pot trial); conditions: application rate 80 g/ha, effect vs untreated controls
Method in brief: (§2)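 Pre-emergence: seeds sown in pots, covered with soil, then WP or EC formulations sprayed on soil surface as aqueous suspension/emulsion with 0.5% additive at 600 L/ha water. Greenhouse; crop damage scored visually as % versus untreated controls after about 3 weeks (100% = dead).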

[13] = tested on: Zea mays; assay: as above; conditions: effect vs untreated controls
Method in brief: as §2

[14] = tested on: Oryza sativa; assay: Crop compatibility post-emergence (greenhouse pot trial)
Method in brief: (§3)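 Greenhouse pot trial: sandy loam, sown seeds, treatment at one-leaf stage 2–3 wk after sowing. Spray: aqueous WP/EC preparation, 0.5% additive, 600 L/ha. Readout: visual % effect after ~3 wk relative to untreated plants.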

[15] = tested on: Triticum aestivum; assay: as above
Method in brief: as §3

[16] = tested on: Glycine max; assay: as above
Method in brief: as §3

[17] = tested on: Zea mays; assay: as above
Method in brief: as §3

[18] = tested on: Echinochloa crus-galli; assay: Herbicidal action pre-emergence (greenhouse pot trial); conditions: application rate 320 g/ha, scored after about 3 weeks
Method in brief: (§4)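 Pots containing sown seeds beneath a soil layer were sprayed with the test formulations at an application rate of 320 g/ha or lower. Percent efficacy was assigned by eye about three weeks afterwards, with dead plants scored as 100%.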

[19] = tested on: Stellaria media; assay: as above; conditions: application rate 320 g/ha, scored after about 3 weeks
Method in brief: as §4

[20] = tested on: Veronica persica; assay: as above; conditions: application rate 320 g/ha
Method in brief: as §4

[21] = tested on: Pharbitis purpurea; assay: as above; conditions: application rate 320 g/ha
Method in brief: as §4

[22] = tested on: Amaranthus retroflexus; assay: as above; conditions: application rate 320 g/ha, scored after about 3 weeks
Method in brief: as §4

[23] = tested on: Cyperus esculentus; assay: as above; conditions: application rate 320 g/ha
Method in brief: as §4

[24] = tested on: Alopecurus myosuroides; assay: as above; conditions: application rate 320 g/ha, scored after about 3 weeks
Method in brief: as §4

[25] = tested on: Abutilon theophrasti; assay: as above; conditions: application rate 320 g/ha, scored after about 3 weeks
Method in brief: as §4

[26] = tested on: Matricaria inodora; assay: as above; conditions: application rate 320 g/ha, scored after about 3 weeks
Method in brief: as §4

[27] = tested on: Lolium rigidum; assay: as above; conditions: application rate 320 g/ha
Method in brief: as §4

[28] = tested on: Hordeum murinum; assay: as above; conditions: application rate 320 g/ha
Method in brief: as §4

[29] = tested on: Viola tricolor; assay: as above; conditions: application rate 320 g/ha, scored after about 3 weeks
Method in brief: as §4

[30] = tested on: Setaria viridis; assay: as above; conditions: application rate 320 g/ha, scored after about 3 weeks
Method in brief: as §4

[31] = tested on: Avena fatua; assay: as above; conditions: application rate 320 g/ha
Method in brief: as §4

[32] = tested on: Alopecurus myosuroides; assay: Herbicidal action post-emergence (greenhouse pot trial); conditions: application rate 80 g/ha, scored visually after about 3 weeks vs untreated controls
Method in brief: as §1

[33] = tested on: Lolium rigidum; assay: as above; conditions: application rate 80 g/ha, scored visually after about 3 weeks vs untreated controls
Method in brief: as §1

| Compound | Veronica persica (Efficacy in %) [3] [%] | Pharbitis purpurea (Efficacy in %) [4] [%] | Amaranthus retroflexus (Efficacy in %) [5] [%] | Abutilon theophrasti (Efficacy in %) [6] [%] | Matricaria inodora (Efficacy in %) [7] [%] | Polygonum convolvulus (Efficacy in %) [8] [%] | Viola tricolor (Efficacy in %) [10] [%] | Echinochloa crus-galli (Efficacy in %) [18] [%] | Stellaria media (Efficacy in %) [19] [%] | Veronica persica (Efficacy in %) [20] [%] | Pharbitis purpurea (Efficacy in %) [21] [%] | Amaranthus retroflexus (Efficacy in %) [22] [%] | Cyperus esculentus (Efficacy in %) [23] [%] | Abutilon theophrasti (Efficacy in %) [25] [%] | Matricaria inodora (Efficacy in %) [26] [%] | Lolium rigidum (Efficacy in %) [27] [%] | Hordeum murinum (Efficacy in %) [28] [%] | Viola tricolor (Efficacy in %) [29] [%] | Setaria viridis (Efficacy in %) [30] [%] | Avena fatua (Efficacy in %) [31] [%] | also measured |
| --- | --- | --- | --- | --- | --- | --- | --- | --- | --- | --- | --- | --- | --- | --- | --- | --- | --- | --- | --- | --- | --- |
| CC(Sc1cc(-n2c(=O)cc(C(F)(F)F)n(C)c2=O)c(F)cc1Cl)C(=O)OCC1CCCO1 (stereo not drawn) [I.1-71] | 100 | 100 | 100 | 100 | 100 | 100 | 100 | 100 | 100 | 100 | 100 | 100 | 80 | 100 | 100 | 90 | 90 | 100 | 100 | 90 | Echinochloa crus-galli (Efficacy in %) [1]: 100%; Stellaria media (Efficacy in %) [2]: 100%; Hordeum murinum (Efficacy in %) [9]: 80%; Setaria viridis (Efficacy in %) [11]: 100%; Glycine max (Efficacy in %) [12]: 0%; Zea mays (Efficacy in %) ([13]; application rate 80 g/ha): 0%; Oryza sativa (Efficacy in %) ([14]; application rate 5 g/ha): 20%; Triticum aestivum (Efficacy in %) ([15]; application rate 80 g/ha): 20%; Glycine max (Efficacy in %) ([16]; application rate 20 g/ha): 20%; Zea mays (Efficacy in %) ([17]; application rate 80 g/ha): 20%; Alopecurus myosuroides (Efficacy in %) [24]: 100% |
| COCCOC(=O)C(C)Sc1cc(-n2c(=O)cc(C(F)(F)F)n(C)c2=O)c(F)cc1Cl (stereo not drawn) [I.1-1] | 100 | 100 | 100 | 100 | 100 | 100 | 100 | 100 | 100 | 100 | 100 | 100 | 100 | 100 | 100 | 80 | 90 | 100 | 100 | 90 | Echinochloa crus-galli (Efficacy in %) [1]: 100%; Stellaria media (Efficacy in %) [2]: 100%; Alopecurus myosuroides (Efficacy in %) [32]: 80%; Lolium rigidum (Efficacy in %) [33]: 90%; Setaria viridis (Efficacy in %) [11]: 100%; Zea mays (Efficacy in %) ([13]; application rate 20 g/ha): 20%; Oryza sativa (Efficacy in %) ([14]; application rate 5 g/ha): 20%; Triticum aestivum (Efficacy in %) ([15]; application rate 5 g/ha): 20%; Zea mays (Efficacy in %) ([17]; application rate 20 g/ha): 20%; Alopecurus myosuroides (Efficacy in %) [24]: 80% |
| CC(Sc1cc(-n2c(=O)cc(C(F)(F)F)n(C)c2=O)c(F)cc1Cl)C(=O)NCC1CS(=O)(=O)CCO1 (stereo not drawn) [I.1-333] | 80 | 80 | 100 | 100 | 100 | 100 | 100 | 100 | 100 | 100 | 100 | 100 | 80 | 100 | 100 | 100 | 100 | 100 | 90 | 100 | Glycine max (Efficacy in %) [12]: 0%; Zea mays (Efficacy in %) ([13]; application rate 80 g/ha): 20%; Oryza sativa (Efficacy in %) ([14]; application rate 80 g/ha): 0%; Triticum aestivum (Efficacy in %) ([15]; application rate 20 g/ha): 10%; Glycine max (Efficacy in %) ([16]; application rate 20 g/ha): 20%; Zea mays (Efficacy in %) ([17]; application rate 80 g/ha): 0%; Alopecurus myosuroides (Efficacy in %) [24]: 100% |
| COCCOC(=O)CSc1cc(-n2c(=O)cc(C(F)(F)F)n(C)c2=O)c(F)cc1Cl [I.8-1] | 100 | 100 | 100 | 100 | 100 | 100 | 100 | 100 | 100 | 100 | 100 | 100 | 90 | 100 | 100 | 90 | 90 | 100 | 100 | 80 | Echinochloa crus-galli (Efficacy in %) [1]: 100%; Stellaria media (Efficacy in %) [2]: 100%; Setaria viridis (Efficacy in %) [11]: 100%; Oryza sativa (Efficacy in %) ([14]; application rate 5 g/ha): 10%; Glycine max (Efficacy in %) ([16]; application rate 5 g/ha): 20%; Zea mays (Efficacy in %) ([17]; application rate 5 g/ha): 20% |
